Laboratory results from US9884063B2, “Amido-substituted azole compounds” (Bayer Pharma Aktiengesellschaft, priority 2014, dated 2018).

Each compound was assayed against T1, TNKS1 (Homo sapiens, UniProt O95271) (assay: Modified TNKS1 Assay 2 (auto-parsylation, [3H]-NAD+ SPA)). Settings: 6 nM TNKS1, 96 well.
T1 sequence (O95271 1-1327): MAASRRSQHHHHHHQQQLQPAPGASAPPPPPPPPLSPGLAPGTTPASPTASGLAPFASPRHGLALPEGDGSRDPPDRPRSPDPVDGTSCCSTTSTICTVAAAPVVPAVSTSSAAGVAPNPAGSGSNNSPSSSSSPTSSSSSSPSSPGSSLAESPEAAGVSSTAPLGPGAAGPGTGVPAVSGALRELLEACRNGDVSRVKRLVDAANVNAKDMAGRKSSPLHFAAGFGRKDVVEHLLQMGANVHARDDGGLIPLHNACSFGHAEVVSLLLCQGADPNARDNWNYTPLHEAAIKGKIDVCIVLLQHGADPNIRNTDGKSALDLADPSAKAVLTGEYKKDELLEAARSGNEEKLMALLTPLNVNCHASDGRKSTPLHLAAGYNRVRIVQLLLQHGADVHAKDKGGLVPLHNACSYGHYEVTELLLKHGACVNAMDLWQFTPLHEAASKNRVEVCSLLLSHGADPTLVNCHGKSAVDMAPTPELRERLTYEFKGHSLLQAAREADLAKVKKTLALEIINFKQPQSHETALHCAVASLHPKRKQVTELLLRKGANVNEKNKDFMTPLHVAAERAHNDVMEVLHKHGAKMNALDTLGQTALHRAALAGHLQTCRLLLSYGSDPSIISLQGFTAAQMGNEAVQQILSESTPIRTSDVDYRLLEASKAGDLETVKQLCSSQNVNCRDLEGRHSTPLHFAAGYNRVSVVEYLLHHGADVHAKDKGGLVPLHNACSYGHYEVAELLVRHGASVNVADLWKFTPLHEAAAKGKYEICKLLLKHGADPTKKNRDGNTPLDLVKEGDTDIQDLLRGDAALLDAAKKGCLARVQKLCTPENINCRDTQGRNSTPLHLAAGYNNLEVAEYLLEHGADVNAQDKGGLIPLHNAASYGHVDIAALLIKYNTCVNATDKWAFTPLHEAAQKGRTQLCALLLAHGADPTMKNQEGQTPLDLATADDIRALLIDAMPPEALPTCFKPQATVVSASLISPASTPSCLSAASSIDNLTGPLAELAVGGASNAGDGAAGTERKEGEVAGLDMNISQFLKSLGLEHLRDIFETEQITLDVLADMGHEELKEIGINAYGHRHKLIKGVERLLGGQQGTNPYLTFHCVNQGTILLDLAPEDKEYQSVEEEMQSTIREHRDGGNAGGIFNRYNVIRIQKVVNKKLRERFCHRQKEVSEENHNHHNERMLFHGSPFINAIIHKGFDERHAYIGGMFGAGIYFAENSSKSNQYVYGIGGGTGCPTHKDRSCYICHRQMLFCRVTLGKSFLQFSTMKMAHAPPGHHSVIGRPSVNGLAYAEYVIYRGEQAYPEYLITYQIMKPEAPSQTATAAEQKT
Type: biochemical

Row | IC50 [nM] | SMILES
1 | 1500 | O=C(Nc1ccc(NC(=O)c2[nH]cnc2C(=O)NCCc2ccccc2)cc1)c1ccc(F)cc1Cl [Example 384, N^5-{4-[(2-chloro-4-fluorobenzoyl)amino]phenyl}-N^4-(2-phenylethyl)-1H-imidazole-4,5-dicarboxamide]
2 | 690 | CNC(=O)c1nc[nH]c1C(=O)Nc1ccc(NC(=O)c2ccccc2Cl)c(F)c1 [Example 80, N^5-{4-[(2-chlorobenzoyl)amino]-3-fluorophenyl}-N^4-methyl-1H-imidazole-4,5-dicarboxamide]
3 | 640 | CNC(=O)c1nc[nH]c1C(=O)Nc1ccc(NC(=O)c2c(F)cc(F)cc2F)cc1 [Example 342, N^4-methyl-N^5-{4-[(2,4,6-trifluorobenzoyl)amino]phenyl}-1H-imidazole-4,5-dicarboxamide]
4 | 9200 | O=C(Nc1ccc(NC(=O)c2[nH]cnc2C(=O)NCCC2CC2)cc1)c1ccc(F)cc1Cl [Example 43, N^5-{4-[(2-chloro-4-fluorobenzoyl)amino]phenyl}-N^4-(2-cyclopropylethyl)-1H-imidazole-4,5-dicarboxamide]
5 | 20 | O=C(Nc1ccc(NC(=O)c2[nH]cnc2C(=O)NC2CC2)cc1)c1cc(F)c(F)cc1Cl [Example 51, N^5-{4-[(2-chloro-4,5-difluorobenzoyl)amino]phenyl}-N^4-cyclopropyl-1H-imidazole-4,5-dicarboxamide]
6 | 120 | CNC(=O)c1nc[nH]c1C(=O)Nc1ccc(NC(=O)c2ccc(S(C)(=O)=O)cc2Cl)cc1 [Example 55, N^5-(4-{[2-chloro-4-(methylsulfonyl)benzoyl]amino}phenyl)-N^4-methyl-1H-imidazole-4,5-dicarboxamide]
7 | 3000 | CCNC(=O)c1nc[nH]c1C(=O)Nc1ccc(NC(=O)c2cccc(OC)c2Cl)cc1 [Example 260, N^5-{4-[(2-chloro-3-methoxybenzoyl)amino]phenyl}-N^4-ethyl-1H-imidazole-4,5-dicarboxamide]
8 | 60 | CN(C)CCNC(=O)c1nc[nH]c1C(=O)Nc1ccc(NC(=O)c2ccccc2Cl)c(F)c1 [Example 81, N^5-{4-[(2-chlorobenzoyl)amino]-3-fluorophenyl}-N^4-[2-(dimethylamino)ethyl]-1H-imidazole-4,5-dicarboxamide]
9 | 170 | Cc1cc(NC(=O)c2[nH]cnc2C(=O)NCCN(C)C)ccc1NC(=O)c1ccc(F)cc1Cl [Example 84, N^5-{4-[(2-chloro-4-fluorobenzoyl)amino]-3-methylphenyl}-N^4-[2-(dimethylamino)ethyl]-1H-imidazole-4,5-dicarboxamide]
10 | 100 | O=C(Nc1ccc(NC(=O)c2[nH]cnc2C(=O)NCCc2cccnc2)cc1)c1ccc(F)cc1Cl [Example 405, N^5-{4-[(2-chloro-4-fluorobenzoyl)amino]phenyl}-N^4-[2-(pyridin-3-yl)ethyl]-1H-imidazole-4,5-dicarboxamide]
11 | 30 | O=C(Nc1ccc(NC(=O)c2[nH]cnc2C(=O)N2CC3(COC3)C2)cc1)c1cc(F)c(F)cc1Cl [Example 52, N-{4-[(2-chloro-4,5-difluorobenzoyl)amino]phenyl}-4-(2-oxa-6-azaspiro[3.3]hept-6-ylcarbonyl)-1H-imidazole-5-carboxamide]
12 | 30 | CNC(=O)c1nc[nH]c1C(=O)Nc1ccc(NC(=O)c2ccc(F)cc2I)cc1 [Example 61, N^5-{4-[(4-fluoro-2-iodobenzoyl)amino]phenyl}-N^4-methyl-1H-imidazole-4,5-dicarboxamide]
13 | 1000 | CNC(=O)c1nc[nH]c1C(=O)Nc1ccc(NC(=O)c2ccc(C#N)cc2)cc1 [Example 322, N^5-{4-[(4-cyanobenzoyl)amino]phenyl}-N^4-methyl-1H-imidazole-4,5-dicarboxamide]
14 | 60 | CNC(=O)c1nc[nH]c1C(=O)Nc1ccc(NC(=O)c2ccc(Br)cc2Cl)cc1 [Example 334, N^5-{4-[(4-bromo-2-chlorobenzoyl)amino]phenyl}-N^4-methyl-1H-imidazole-4,5-dicarboxamide]
15 | 50 | O=C(Nc1ccc(NC(=O)c2[nH]cnc2C(=O)NCCc2ccncc2)cc1)c1ccc(F)cc1Cl [Example 394, N^5-{4-[(2-chloro-4-fluorobenzoyl)amino]phenyl}-N^4-[2-(pyridin-4-yl)ethyl]-1H-imidazole-4,5-dicarboxamide]
16 | 300 | CCN(CC)CCCCNC(=O)c1nc[nH]c1C(=O)Nc1ccc(NC(=O)c2ccc(F)cc2Cl)cc1 [Example 393, N^5-{4-[(2-chloro-4-fluorobenzoyl)amino]phenyl}-N^4-[4-(diethylamino)butyl]-1H-imidazole-4,5-dicarboxamide]
17 | 210 | CC(CN1CCOCC1)NC(=O)c1[nH]cnc1C(=O)Nc1ccc(NC(=O)c2ccc(F)cc2)cc1 (centres unmarked) [Example 294, N^4-{4-[(4-fluorobenzoyl)amino]phenyl}-N^5-[1-(morpholin-4-yl)propan-2-yl]-1H-imidazole-4,5-dicarboxamide]
18 | > 10000 | CNC(=O)c1nc[nH]c1C(=O)Nc1ccc(NC(=O)c2ccc(F)c(Cl)c2)cc1 [Example 340, N^5-{4-[(3-chloro-4-fluorobenzoyl)amino]phenyl}-N^4-methyl-1H-imidazole-4,5-dicarboxamide]
19 | 40 | NCCNC(=O)c1[nH]cnc1C(=O)Nc1ccc(NC(=O)c2ccc(F)cc2Cl)cc1 [Example 290, N^5-(2-aminoethyl)-N^4-{4-[(2-chloro-4-fluorobenzoyl)amino]phenyl}-1H-imidazole-4,5-dicarboxamide]
20 | > 10000 | CNC(=O)c1nc[nH]c1C(=O)Nc1ccc(NC(=O)c2cccc(F)c2Cl)cc1 [Example 370, N^5-{4-[(2-chloro-3-fluorobenzoyl)amino]phenyl}-N^4-methyl-1H-imidazole-4,5-dicarboxamide]
21 | 80 | O=C(Nc1ccc(NC(=O)c2nc[nH]c2C(=O)NCCN2CCCCC2)cc1OC(F)(F)F)c1ccc(F)cc1Cl [Example 293, N^4-{4-[(2-chloro-4-fluorobenzoyl)amino]-3-(trifluoromethoxy)phenyl}-N^5-[2-(piperidin-1-yl)ethyl]-1H-imidazole-4,5-dicarboxamide]
22 | 1200 | CNC(=O)c1nc[nH]c1C(=O)Nc1ccc(NC(=O)c2c(C)cccc2F)cc1 [Example 375, N^5-{4-[(2-fluoro-6-methylbenzoyl)amino]phenyl}-N^4-methyl-1H-imidazole-4,5-dicarboxamide]
23 | > 10000 | CNC(=O)c1nc[nH]c1C(=O)Nc1ccc(NC(=O)c2ccc(F)c(Cl)c2F)cc1 [Example 359, N^5-{4-[(3-chloro-2,4-difluorobenzoyl)amino]phenyl}-N^4-methyl-1H-imidazole-4,5-dicarboxamide]
24 | 4 | CC(CN1CCOCC1)NC(=O)c1[nH]cnc1C(=O)Nc1ccc(NC(=O)c2ccc(F)cc2Cl)cc1 (single isomer, unassigned; enantiomer 2) [Example 270, N^4-{4-[(2-chloro-4-fluorobenzoyl)amino]phenyl}-N^5-[1-(morpholin-4-yl)propan-2-yl]-1H-imidazole-4,5-dicarboxamide (enantiomer 2)]
25 | 2000 | CNC(=O)c1nc[nH]c1C(=O)Nc1ccc(NC(=O)c2ncccc2C)cc1 [Example 356, N^4-methyl-N^5-(4-{[(3-methylpyridin-2-yl)carbonyl]amino}phenyl)-1H-imidazole-4,5-dicarboxamide]
26 | > 10000 | CNC(=O)c1nc[nH]c1C(=O)Nc1ccc(NC(=O)c2ccon2)cc1 [Example 376, N^4-methyl-N^5-{4-[(1,2-oxazol-3-ylcarbonyl)amino]phenyl}-1H-imidazole-4,5-dicarboxamide]
27 | > 10000 | CNC(=O)c1nc[nH]c1C(=O)Nc1ccc(NC(=O)c2cc(C)ccn2)cc1 [Example 363, N^4-methyl-N^5-(4-{[(4-methylpyridin-2-yl)carbonyl]amino}phenyl)-1H-imidazole-4,5-dicarboxamide]
28 | 20 | O=C(Nc1ccc(NC(=O)c2nc[nH]c2C(=O)NCCN2CCCCC2)cc1)c1ccccc1Cl [Example 381, N^4-{4-[(2-chlorobenzoyl)amino]phenyl}-N^5-[2-(piperidin-1-yl)ethyl]-1H-imidazole-4,5-dicarboxamide]
29 | > 10000 | O=C(Nc1ccc(NC(=O)c2[nH]cnc2C(=O)NCCN2CCCCC2)cc1F)c1ccc(F)cc1 [Example 78, N^5-{3-fluoro-4-[(4-fluorobenzoyl)amino]phenyl}-N^4-[2-(piperidin-1-yl)ethyl]-1H-imidazole-4,5-dicarboxamide]
